Assay results from ChEMBL document CHEMBL1142612, “A meroterpenoid NF-kappaB inhibitor and drimane sesquiterpenoids from Asafetida” (J Nat Prod, 2006).
Activity calls are given as the source filed them. The calls are words filed in the database; no cut-off is given here.

Legend:
[1] = Inhibition of NF-kappaB in TNF-alpha-stimulated human cloned Jurkat 5.1 cells cotransfected with HIV1-LTR promoter preincubated for 30 mins before TNFalpha challenge after 6 hrs by luciferase reporter gene assay; type: cell-based
A549 [2] = assay: Cytotoxicity against human A549 cells using propidium iodide staining by flow cytometry; type: functional, cell-based
HeLa = assay: Cytotoxicity against human HeLa cells using propidium iodide staining by flow cytometry; type: functional, cell-based
Jurkat = assay: Cytotoxicity against human cloned Jurkat 5.1 cells using propidium iodide staining by flow cytometry; type: functional, cell-based
A549 [3] = assay: Inhibition of NF-kappaB in TNF-alpha-stimulated human A549 cells cotransfected with KBF-luciferase gene preincubated for 30 mins before TNFalpha challenge after 6 hrs by luciferase reporter gene assay; type: cell-based

IC50 [1]	Structure (SMILES)	Activity (A549 [2])	Activity (HeLa)	Activity (Jurkat)	Activity (A549 [3])
37.5 µM	CC(C)=CCC(O)/C(C)=C/C(O)C/C(C)=C/COc1ccc2ccc(=O)oc2c1 (configuration not stated)	–	–	–	–
57.6 µM	CC1=CC(=O)C2=C(C)CC3OC(=O)C(C)=C3C=C12 (configuration not stated) [TARAXACIN]	–	–	–	–

Structure (SMILES)	IC50 [1]	Activity (A549 [2])	Activity (HeLa)	Activity (Jurkat)	Activity (A549 [3])
CC(=O)OC(CC=C(C)C)/C(C)=C/C(O)C/C(C)=C/COc1ccc2ccc(=O)oc2c1 (configuration not stated)	15.1 µM	inactive	inactive	inactive	Dose-dependent effect
